US11904038B2 (INDUSTRY-ACADEMIC COOPERATION FOUNDATION, YONSEI UNIVERSITY, priority 2017, dated 2024)

Experiments:
VEGF [1] = test: human VEGF ELISA of culture solutions; type: cell-based; settings: phellandrene 20 μM, 24 hours, vs DMSO, (A) of FIG. 3
Method: (§1) DMSO was used as a negative control group. The phellandrene-treated culture solutions were collected after 24 hours, and experiments were conducted using human VEGF ELISA Kit (Enzo Life Sciences, NY, USA), human IGF-1 ELISA kit (Enzo Life Sciences, NY, USA), and cAMP complete ELISA kit (Enzo Life Sciences, NY, USA), respectively, according to the manufacturers' protocol.

IGF-1 [2] = test: human IGF-1 ELISA of culture solutions; type: cell-based; settings: phellandrene 20 μM, 24 hours, vs DMSO, (B) of FIG. 3
Method: as §1

cAMP = cAMP complete ELISA; type: cell-based, human; settings: phellandrene 20 μM, 24 hours, vs DMSO, FIG. 4
Method: as §1

PKA Cα = test: Western blot analysis of PKA Cα; type: cell-based, human; settings: phellandrene 20 μM, protein, (A) of FIG. 5
Method: (§2) Protein quantification was performed by Bradford assay.
(§3) 40 μg of the protein was electrophoresed on 10% SDS polyacrylamide gel and then transferred to nitrocellulose membranes. The protein was allowed to react with each of PKA Cα, β-catenin, β-actin, and GAPDH antibody (Cell Signaling Technology, Danvers, MA, USA). Each protein's signal was visualized with a chemiluminescent detection system (Amersham), and then the band's thickness was quantified using the Quantity One Analysis Software (Bio-Rad Laboratories).

β-catenin = test: Western blot analysis of β-catenin; type: cell-based, human; settings: phellandrene 20 μM, protein, (B) of FIG. 5
Method: as §2, §3

LEF = test: RT-PCR mRNA expression of LEF; type: cell-based, human; settings: phellandrene 20 μM, 24 hours, FIG. 6
Method: (§4) 24 hours after the treatment, the cells were collected and total RNA was extracted with Trizol Reagent (Gibco BRL, USA). The total RNA was quantified by absorbance measurement at 260 nm.
(§5) After isolation of RNA, cDNA was synthesized by performing reverse transcription using oligo dT primers and SuperScript reverse transcriptase (GIBCOBRL, Gaithersburg, MD, USA). PCR was performed using, as a template, cDNA obtained through reverse transcription and using, as primers, 5′ and 3′ flanking sequences of the gene's cDNA to be amplified. Here, required primers were obtained by making a request for synthesis with a company specializing in primer manufacturing (BIONEER CORPORATION, Korea) and used. To a mixture obtained by mixing of 5 μl of 10× reaction buffer [100 mM KCL, 20 mM Tris-HCl (pH 8.0), 2.5 mM MgCl2], 4 μl of 10 mM dNTP, and 1 μl each of 0.2 μM sense and antisense primers, were added 2 μl of the completed cDNA reaction mixture and 2.5 unit of Taq polymerase (Takara, Japan). Then, the volume was adjusted with 50 μl of distilled water, and PCR was performed using a PCR instrument. PCR conditions were set to 94° C. for 4 minutes, 94° C. (30 seconds), 30 cycles of [52° C. (30 seconds), 72° C. (45 seconds)], and 72° C. for 10 minutes.

Cyc-D = test: RT-PCR mRNA expression of Cyc-D; type: cell-based, human; settings: phellandrene 20 μM, 24 hours, FIG. 6
Method: as §4, §5

VEGF [3] = test: RT-PCR mRNA expression of VEGF; type: cell-based, human; settings: phellandrene 20 μM, 24 hours, FIG. 6
Method: as §4, §5

IGF-1 [4] = test: RT-PCR mRNA expression of IGF-1; type: cell-based, human; settings: phellandrene 20 μM, 24 hours, FIG. 6
Method: as §4, §5

[5] = system: WEHI-3 murine leukemia cells; settings: in vitro, Lin et al. 2015; cited from earlier work
[6] = system: neutrophil migration and mast cell stabilization; settings: Siqueira et al. 2016; cited from earlier work
[7] = system: human hair dermal papilla cells; test: MTT assay: cell viability and proliferation in human hair dermal papilla cells; settings: FIG. 2
Method: Human hair dermal papilla cells were purchased from PromoCell GmbH (Heidelberg, Germany). The human hair dermal papilla cells were cultured in an incubator at 37° C., 5% CO2 using HFDPC medium (PromoCell, Germany) with fetal bovine serum (FBS) and Dulbecco's modified Eagle's medium (DMEM; Gibco BRL, Gaithersburg, MD, USA). Due to the nature of the cells, cells at passages 2 to 5 were used for all experiments.
The human hair dermal papilla cells were dispensed into 24-well plates to 1×10^5 cells/well, and then cultured for 24 hours in an incubator at 37° C., 5% CO2 so that the cells are stabilized. Treatment with samples at respective concentrations (0, 10, 20, 50, 100, 200, 400 μg/ml) was performed and culture was performed for 24 hours. Then, treatment with 100 ul of 3-(4,5-dimethylthiazol-2-yl)-2,5-diphenyltetrazolium bromide (MTT; Sigma Aldrich, St. Louis, USA) reagent at a concentration of 200 mg/ml was performed and culture was performed again for 4 hours. After removing the medium, the precipitate (formazan) was dissolved in DMSO and the absorbance was measured at a wavelength of 540 nm. A proliferation rate thereof was evaluated based on the absorbance of a control group containing only DMSO.
The group containing only DMSO was set as a control group. […] Then, culture was performed for 24 hours, and cell viability was measured through an MTT assay.

## phellandrene
VEGF [1]
  increase in concentration of VEGF: 27%
IGF-1 [2]
  increase in concentration of IGF-1: 18%
cAMP
  increase in cAMP concentration: 30%
PKA Cα
  increase in expression of PKA Cα: 42%
β-catenin
  increase in expression of β-catenin in the cell nucleus: 30%
LEF
  increase in mRNA expression of LEF: 348%
Cyc-D
  increase in mRNA expression of Cyc-D: 250%
VEGF [3]
  increase in mRNA expression of VEGF: 247%
IGF-1 [4]
  increase in mRNA expression of IGF: 217%
[5]
  known physiological function: apoptosis in leukemia cells: induce apoptosis in leukemia cells
[6]
  known physiological function: anti-inflammatory: serve as an anti-inflammatory agent
[7]; phellandrene 10 μM
  proliferation rate increase: 10.8%
[7]; phellandrene 20 μM
  proliferation rate increase: 24%
[7]; phellandrene 50 μM
  proliferation rate increase: 18%
